{"source": "PubChem BioAssay (NCI)", "experiment_in_all_cases": "inhibition of tumour cell growth, NCI panel, 48 h", "key": {"[1]": {"test_system": "K-562 leukemia"}, "[2]": {"test_system": "A549 NSCLC"}, "[3]": {"test_system": "UACC-257 melanoma"}, "[4]": {"test_system": "M14 melanoma"}, "[5]": {"test_system": "SK-MEL-28 melanoma"}, "[6]": {"test_system": "CCRF-CEM leukemia"}, "[7]": {"test_system": "OVCAR-8 ovarian"}, "[8]": {"test_system": "SF-268 CNS"}, "[9]": {"test_system": "NCI-H23 lung"}, "[10]": {"test_system": "SN12C renal"}, "[11]": {"test_system": "IGROV1 ovarian"}, "[12]": {"test_system": "XF 498 CNS"}, "[13]": {"test_system": "M19-MEL melanoma"}, "[14]": {"test_system": "DLD-1 colon"}, "[15]": {"test_system": "HT29 colon"}, "[16]": {"test_system": "A498 renal"}, "[17]": {"test_system": "OVCAR-5 ovarian"}, "[18]": {"test_system": "NCI-H522 lung"}, "[19]": {"test_system": "SK-MEL-5 melanoma"}, "[20]": {"test_system": "KM12 colon"}, "[21]": {"test_system": "SF-295 CNS"}, "[22]": {"test_system": "SR leukemia"}, "[23]": {"test_system": "SNB-78 CNS"}, "[24]": {"test_system": "UO-31 renal"}, "[25]": {"test_system": "HCT-15 colon"}, "[26]": {"test_system": "HOP-62 NSCLC"}, "[27]": {"test_system": "LXFL 529 NSCLC"}, "[28]": {"test_system": "KM20L2 colon"}, "[29]": {"test_system": "SW-620 colon"}, "[30]": {"test_system": "NCI-H226 lung"}, "[31]": {"test_system": "SK-MEL-2 melanoma"}, "[32]": {"test_system": "SK-OV-3 ovarian"}, "[33]": {"test_system": "MOLT-4 leukemia"}, "[34]": {"test_system": "TK-10 renal"}, "[35]": {"test_system": "SNB-19 CNS"}, "[36]": {"test_system": "HOP-18 NSCLC"}, "[37]": {"test_system": "RPMI-8226 leukemia"}, "[38]": {"test_system": "NCI-H460 lung"}, "[39]": {"test_system": "MALME-3M melanoma"}, "[40]": {"test_system": "SF-539 CNS"}, "[41]": {"test_system": "SNB-75 CNS"}, "[42]": {"test_system": "U251 CNS"}, "[43]": {"test_system": "HCC-2998 colon"}, "[44]": {"test_system": "HCT-116 colon"}, "[45]": {"test_system": "EKVX NSCLC"}, "[46]": {"test_system": "786-0 renal"}, "[47]": {"test_system": "ACHN renal"}, "[48]": {"test_system": "RXF 393 renal"}, "[49]": {"test_system": "CAKI-1 renal"}, "[50]": {"test_system": "DMS 273 small cell lung"}, "[51]": {"test_system": "HL-60(TB) leukemia"}, "[52]": {"test_system": "OVCAR-3 ovarian"}, "[53]": {"test_system": "OVCAR-4 ovarian"}, "[54]": {"test_system": "LOX IMVI melanoma"}, "[55]": {"test_system": "UACC-62 melanoma"}, "[56]": {"test_system": "COLO 205 colon"}}, "note": "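Grown in 96-well plates, cells were treated for 48 hours with each compound at five concentrations. Insufficient inhibition: endpoint recorded as highest concentration tested. TGI denotes the concentration required for complete inhibition of growth.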"}
{"smiles": "Cc1ccc(C2=C(c3ccccc3)C(=O)C(c3ccccc3)=C2c2ccc(C)cc2)cc1", "values": [{"measurement": "TGI", "setting": "[1]", "result": "> 100", "unit": "µM"}, {"measurement": "TGI", "setting": "[2]", "result": "> 100", "unit": "µM"}, {"measurement": "TGI", "setting": "[3]", "result": "> 100", "unit": "µM"}, {"measurement": "TGI", "setting": "[4]", "result": "> 100", "unit": "µM"}, {"measurement": "TGI", "setting": "[5]", "result": 48, "unit": "µM"}, {"measurement": "TGI", "setting": "[6]", "result": 70.5, "unit": "µM"}, {"measurement": "TGI", "setting": "[7]", "result": "> 100", "unit": "µM"}, {"measurement": "TGI", "setting": "[8]", "result": "> 100", "unit": "µM"}, {"measurement": "TGI", "setting": "[9]", "result": 85.1, "unit": "µM"}, {"measurement": "TGI", "setting": "[10]", "result": "> 100", "unit": "µM"}, {"measurement": "TGI", "setting": "[11]", "result": "> 100", "unit": "µM"}, {"measurement": "TGI", "setting": "[12]", "result": "> 100", "unit": "µM"}, {"measurement": "TGI", "setting": "[13]", "result": "> 100", "unit": "µM"}, {"measurement": "TGI", "setting": "[14]", "result": "> 100", "unit": "µM"}, {"measurement": "TGI", "setting": "[15]", "result": "> 100", "unit": "µM"}, {"measurement": "TGI", "setting": "[16]", "result": "> 100", "unit": "µM"}, {"measurement": "TGI", "setting": "[17]", "result": "> 100", "unit": "µM"}, {"measurement": "TGI", "setting": "[18]", "result": "> 100", "unit": "µM"}, {"measurement": "TGI", "setting": "[19]", "result": "> 100", "unit": "µM"}, {"measurement": "TGI", "setting": "[20]", "result": "> 100", "unit": "µM"}, {"measurement": "TGI", "setting": "[21]", "result": "> 100", "unit": "µM"}, {"measurement": "TGI", "setting": "[22]", "result": "> 100", "unit": "µM"}, {"measurement": "TGI", "setting": "[23]", "result": "> 100", "unit": "µM"}, {"measurement": "TGI", "setting": "[24]", "result": "> 100", "unit": "µM"}, {"measurement": "TGI", "setting": "[25]", "result": "> 100", "unit": "µM"}, {"measurement": "TGI", "setting": "[26]", "result": "> 100", "unit": "µM"}, {"measurement": "TGI", "setting": "[27]", "result": "> 100", "unit": "µM"}, {"measurement": "TGI", "setting": "[28]", "result": "> 100", "unit": "µM"}, {"measurement": "TGI", "setting": "[29]", "result": 95.7, "unit": "µM"}, {"measurement": "TGI", "setting": "[30]", "result": "> 100", "unit": "µM"}, {"measurement": "TGI", "setting": "[31]", "result": "> 100", "unit": "µM"}, {"measurement": "TGI", "setting": "[32]", "result": "> 100", "unit": "µM"}, {"measurement": "TGI", "setting": "[33]", "result": "> 100", "unit": "µM"}, {"measurement": "TGI", "setting": "[34]", "result": "> 100", "unit": "µM"}, {"measurement": "TGI", "setting": "[35]", "result": "> 100", "unit": "µM"}, {"measurement": "TGI", "setting": "[36]", "result": "> 100", "unit": "µM"}, {"measurement": "TGI", "setting": "[37]", "result": "> 100", "unit": "µM"}, {"measurement": "TGI", "setting": "[38]", "result": "> 100", "unit": "µM"}, {"measurement": "TGI", "setting": "[39]", "result": "> 100", "unit": "µM"}, {"measurement": "TGI", "setting": "[40]", "result": 46.9, "unit": "µM"}, {"measurement": "TGI", "setting": "[41]", "result": "> 100", "unit": "µM"}, {"measurement": "TGI", "setting": "[42]", "result": "> 100", "unit": "µM"}, {"measurement": "TGI", "setting": "[43]", "result": "> 100", "unit": "µM"}, {"measurement": "TGI", "setting": "[44]", "result": "> 100", "unit": "µM"}, {"measurement": "TGI", "setting": "[45]", "result": "> 100", "unit": "µM"}, {"measurement": "TGI", "setting": "[46]", "result": "> 100", "unit": "µM"}, {"measurement": "TGI", "setting": "[47]", "result": "> 100", "unit": "µM"}, {"measurement": "TGI", "setting": "[48]", "result": "> 100", "unit": "µM"}]}
{"smiles": "CC(C)(C)c1cc(COc2c3sc(=S)sc3c(OCc3cc(C(C)(C)C)cc(C(C)(C)C)c3)c3sc(=S)sc23)cc(C(C)(C)C)c1", "values": [{"measurement": "TGI", "setting": "[1]", "result": "> 100", "unit": "µM"}, {"measurement": "TGI", "setting": "[2]", "result": "> 100", "unit": "µM"}, {"measurement": "TGI", "setting": "[3]", "result": "> 100", "unit": "µM"}, {"measurement": "TGI", "setting": "[4]", "result": "> 100", "unit": "µM"}, {"measurement": "TGI", "setting": "[5]", "result": "> 100", "unit": "µM"}, {"measurement": "TGI", "setting": "[6]", "result": "> 100", "unit": "µM"}, {"measurement": "TGI", "setting": "[7]", "result": "> 100", "unit": "µM"}, {"measurement": "TGI", "setting": "[9]", "result": "> 100", "unit": "µM"}, {"measurement": "TGI", "setting": "[10]", "result": "> 100", "unit": "µM"}, {"measurement": "TGI", "setting": "[11]", "result": "> 100", "unit": "µM"}, {"measurement": "TGI", "setting": "[12]", "result": "> 100", "unit": "µM"}, {"measurement": "TGI", "setting": "[13]", "result": "> 100", "unit": "µM"}, {"measurement": "TGI", "setting": "[14]", "result": "> 100", "unit": "µM"}, {"measurement": "TGI", "setting": "[15]", "result": "> 100", "unit": "µM"}, {"measurement": "TGI", "setting": "[16]", "result": "> 100", "unit": "µM"}, {"measurement": "TGI", "setting": "[19]", "result": "> 100", "unit": "µM"}, {"measurement": "TGI", "setting": "[21]", "result": "> 100", "unit": "µM"}, {"measurement": "TGI", "setting": "[25]", "result": "> 100", "unit": "µM"}, {"measurement": "TGI", "setting": "[26]", "result": "> 100", "unit": "µM"}, {"measurement": "TGI", "setting": "[27]", "result": "> 100", "unit": "µM"}, {"measurement": "TGI", "setting": "[28]", "result": "> 100", "unit": "µM"}, {"measurement": "TGI", "setting": "[29]", "result": "> 100", "unit": "µM"}, {"measurement": "TGI", "setting": "[49]", "result": "> 100", "unit": "µM"}, {"measurement": "TGI", "setting": "[50]", "result": "> 100", "unit": "µM"}, {"measurement": "TGI", "setting": "[51]", "result": "> 100", "unit": "µM"}, {"measurement": "TGI", "setting": "[32]", "result": "> 100", "unit": "µM"}, {"measurement": "TGI", "setting": "[33]", "result": "> 100", "unit": "µM"}, {"measurement": "TGI", "setting": "[34]", "result": "> 100", "unit": "µM"}, {"measurement": "TGI", "setting": "[35]", "result": "> 100", "unit": "µM"}, {"measurement": "TGI", "setting": "[36]", "result": "> 100", "unit": "µM"}, {"measurement": "TGI", "setting": "[37]", "result": "> 100", "unit": "µM"}, {"measurement": "TGI", "setting": "[52]", "result": "> 100", "unit": "µM"}, {"measurement": "TGI", "setting": "[53]", "result": "> 100", "unit": "µM"}, {"measurement": "TGI", "setting": "[54]", "result": "> 100", "unit": "µM"}, {"measurement": "TGI", "setting": "[38]", "result": "> 100", "unit": "µM"}, {"measurement": "TGI", "setting": "[40]", "result": "> 100", "unit": "µM"}, {"measurement": "TGI", "setting": "[41]", "result": "> 100", "unit": "µM"}, {"measurement": "TGI", "setting": "[42]", "result": "> 100", "unit": "µM"}, {"measurement": "TGI", "setting": "[43]", "result": "> 100", "unit": "µM"}, {"measurement": "TGI", "setting": "[44]", "result": "> 100", "unit": "µM"}, {"measurement": "TGI", "setting": "[45]", "result": "> 100", "unit": "µM"}, {"measurement": "TGI", "setting": "[46]", "result": "> 100", "unit": "µM"}, {"measurement": "TGI", "setting": "[47]", "result": "> 100", "unit": "µM"}, {"measurement": "TGI", "setting": "[55]", "result": "> 100", "unit": "µM"}, {"measurement": "TGI", "setting": "[56]", "result": "> 100", "unit": "µM"}, {"measurement": "TGI", "setting": "[48]", "result": "> 100", "unit": "µM"}]}
